Test results taken from article PMC8591808 (Molecular Brain, 2021).

Target: T1, Cav3.2 T-type calcium channel (Homo sapiens, UniProt O95180)
T1 construct: gene CACNA1H
Test: whole-cell patch clamp, tsA-201 cells transiently expressing Cav3.[…]; partial block (plateau about […])
Format: cell-based

T1 sequence (O95180 whole entry): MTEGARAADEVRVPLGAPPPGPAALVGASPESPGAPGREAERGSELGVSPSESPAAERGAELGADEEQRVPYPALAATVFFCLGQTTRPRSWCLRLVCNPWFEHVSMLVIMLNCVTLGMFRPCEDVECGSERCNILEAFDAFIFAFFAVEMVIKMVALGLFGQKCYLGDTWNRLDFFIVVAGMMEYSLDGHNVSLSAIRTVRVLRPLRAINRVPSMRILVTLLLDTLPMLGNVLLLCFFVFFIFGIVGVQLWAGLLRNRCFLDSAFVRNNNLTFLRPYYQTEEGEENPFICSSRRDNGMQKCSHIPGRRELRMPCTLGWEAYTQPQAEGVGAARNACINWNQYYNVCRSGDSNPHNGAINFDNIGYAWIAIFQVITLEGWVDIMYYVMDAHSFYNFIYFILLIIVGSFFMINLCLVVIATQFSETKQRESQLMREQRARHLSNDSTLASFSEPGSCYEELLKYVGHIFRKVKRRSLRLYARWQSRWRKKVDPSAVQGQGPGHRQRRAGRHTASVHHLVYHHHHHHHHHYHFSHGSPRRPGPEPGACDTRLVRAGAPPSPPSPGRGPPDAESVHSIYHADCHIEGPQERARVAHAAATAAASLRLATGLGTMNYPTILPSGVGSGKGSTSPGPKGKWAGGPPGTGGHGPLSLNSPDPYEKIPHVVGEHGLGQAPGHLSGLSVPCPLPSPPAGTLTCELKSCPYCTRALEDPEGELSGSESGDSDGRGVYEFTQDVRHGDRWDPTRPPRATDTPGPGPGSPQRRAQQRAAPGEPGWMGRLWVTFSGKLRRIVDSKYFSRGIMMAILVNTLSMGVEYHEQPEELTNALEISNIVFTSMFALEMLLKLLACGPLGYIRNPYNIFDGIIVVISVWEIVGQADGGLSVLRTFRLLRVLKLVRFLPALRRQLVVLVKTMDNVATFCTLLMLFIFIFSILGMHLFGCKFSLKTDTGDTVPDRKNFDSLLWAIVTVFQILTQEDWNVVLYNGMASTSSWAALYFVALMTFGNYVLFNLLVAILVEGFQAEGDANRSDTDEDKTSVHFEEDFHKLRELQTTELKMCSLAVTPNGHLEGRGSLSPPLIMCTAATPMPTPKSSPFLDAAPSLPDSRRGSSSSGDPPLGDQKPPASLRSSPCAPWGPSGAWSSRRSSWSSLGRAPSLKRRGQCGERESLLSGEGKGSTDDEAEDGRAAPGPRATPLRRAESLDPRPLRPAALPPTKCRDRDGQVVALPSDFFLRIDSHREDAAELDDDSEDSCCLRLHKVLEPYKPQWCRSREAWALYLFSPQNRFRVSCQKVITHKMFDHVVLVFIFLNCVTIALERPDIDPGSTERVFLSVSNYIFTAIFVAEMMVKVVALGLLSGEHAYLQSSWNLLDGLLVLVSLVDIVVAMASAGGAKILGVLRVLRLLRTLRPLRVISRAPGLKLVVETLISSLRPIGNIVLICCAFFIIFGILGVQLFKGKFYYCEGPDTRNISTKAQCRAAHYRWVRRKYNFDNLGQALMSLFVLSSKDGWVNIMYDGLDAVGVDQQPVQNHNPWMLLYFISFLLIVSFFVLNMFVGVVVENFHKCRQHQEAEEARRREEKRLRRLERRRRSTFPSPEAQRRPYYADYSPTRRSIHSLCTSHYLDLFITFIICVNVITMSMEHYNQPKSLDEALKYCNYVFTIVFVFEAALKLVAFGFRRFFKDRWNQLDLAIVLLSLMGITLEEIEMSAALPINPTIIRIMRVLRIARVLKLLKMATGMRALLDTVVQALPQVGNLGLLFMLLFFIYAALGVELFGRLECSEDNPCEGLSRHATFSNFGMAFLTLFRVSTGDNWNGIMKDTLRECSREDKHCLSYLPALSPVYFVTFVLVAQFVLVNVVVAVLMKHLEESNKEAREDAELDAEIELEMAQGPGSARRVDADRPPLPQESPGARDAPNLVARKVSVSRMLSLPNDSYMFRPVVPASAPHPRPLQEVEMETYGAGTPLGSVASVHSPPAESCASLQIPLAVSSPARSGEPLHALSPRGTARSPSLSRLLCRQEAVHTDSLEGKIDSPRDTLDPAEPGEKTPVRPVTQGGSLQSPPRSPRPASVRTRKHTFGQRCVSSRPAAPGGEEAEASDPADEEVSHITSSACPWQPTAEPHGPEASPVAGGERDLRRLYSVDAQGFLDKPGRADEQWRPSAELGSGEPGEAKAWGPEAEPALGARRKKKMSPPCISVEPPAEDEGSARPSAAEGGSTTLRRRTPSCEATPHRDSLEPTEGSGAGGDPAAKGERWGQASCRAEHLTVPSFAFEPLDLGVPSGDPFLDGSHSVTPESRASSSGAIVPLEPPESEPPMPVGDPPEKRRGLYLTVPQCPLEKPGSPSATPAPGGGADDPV

IC50 [µM] | Structure (SMILES)
4.5 ± 1.1 | CC(C)=CCC[C@](C)(O)[C@@H]1CC=C(C)CC1 [alpha-bisabolol]
7.7 ± 1.8 | C=C1C2CCC(C2)C1(C)C (centres unmarked) [camphene]
